The record followed here is patent US20240132910A1, “USE OF HISTIDINE RICH PEPTIDES AS A TRANSFECTION REAGENT FOR rAAV AND rBV PRODUCTION” (BioMarin Pharmaceutical Inc., priority 2021, published 2024).

Read-outs that look alike come from different tables or passages of the source. Ends that are not written are not given here. Some results are limits rather than exact numbers.

Data set [1] relates to Sf9 cells. Description: rBV titers from bacmid-transfected Sf9 cells. Format: cell-based, Spodoptera frugiperda. Conditions: FIG. 18. The method, then:
The titer of the rBV can be determined using a foci/viral plaque assay. This assay first includes the step of infecting cells with serial dilutions of a solution containing rBV. After infection occurs for a predetermined time, the rBV is removed from the cultures and the cells are incubated for a pre-determined time. After the pre-determined time has elapsed, a plaquing media (e.g., containing agarose) is added to the cultures and allowed to harden. The cells are allowed to further incubate for a pre-determined time and the number of plaques are counted after the pre-determined time. The titer is calculated using the following formula: Titer (plaque forming units/mL)=number of plaques×dilution factor×(1/(mL of inoculum/well)
AAV5 capsids were also produced in Sf9 cells. To produce the AAV5 capsids, Sf9 cells were transfected with bacmids having nucleotide sequences for generating AAV5 capsids or providing an AAV genome vector using the control transfection reagent and different HRPs. […] In culture, the rBVs generated from the initial bacmid transfection subsequently infect other Sf9 cells that in turn generated more rBVs.

The subject of data set [2] is Sf9 cells. Description: AAV5 capsids from Sf9 cells infected with the rBVs, ddPCR. Format: cell-based, Spodoptera frugiperda. Conditions: rBVs from transfected Sf9 cells, FIG. 19. As for the experimental part:
The different rBVs were collected and used to further infect naive Sf9 cells to generate AAV5 capsids, where the rBVs have nucleotide sequences for generating AAV5 capsids. The titers were determined using ddPCR. […] The AAV5 capsids produced using LAH4-L1-F4 had concentrations of the VP1 capsid protein and ratios of capsid to vector genomes that were the same as AAV5 capsids produced using the control transfection reagent.

Data set [3] in a line: Viability of transfected HEK293 cells (Trypan Blue exclusion), AAV9 production in Ambr15. Format: cell-based. The following applies: human, read-out: average cell viability. As for the experimental part: The cell viabilities were quantified using an automated cell counter and Trypan Blue exclusion.
In Ambr15 minibioreactors (15 mL volume), AAV9 capsids were produced in HEK293 cells transfected with plasmids for producing AAV9 capsids and providing an AAV genome vector containing an GFP expression cassette using different complexation volumes of the LAH4 peptide. Prior to transfection, the plasmids were mixed with a concentration of the LAH4 peptide and incubated for 10 minutes and 60 minutes. The LAH4/plasmids mixtures had volumes that were 1% and 10% of the HEK293 cell culture volume. The titers were determined using ddPCR and GFP intensity was measured by attune flow cytometer.

A short description of data set [4]: Stability of DNA:transfection reagent complexes before transfection. As for the experimental part: The LAH4 peptide was allowed to incubate with the plasmids for more than 1 hour for large scale (more than or equal 100 L) transient transfections since this incubation time allowed for improved stability of the transfection complexes such that the processes were robust and reproducible. It was discovered that LAH4: DNA complexes are stable at least for 1 hour. In a follow up study, the stability of LAH:DNA complexes are evaluated for up to 1 week when stored at 2-8° C. and/or room temperature and with or without exposure to ambient light.
Transfection: LAH4 solution from the same batch is kept at −20° C. in single use aliquots. LAH4 is thawed at RT and mixed with plasmid DNA containing GFP reporter gene. DNA:LAH4 complexes are kept in closed caps tubes to prevent evaporation at either room temperature or 2-8° C. for indicated periods of time before transfection.
Stability of LAH4:DNA complexes: Biophysical characterization of LAH4:DNA complexes is performed. Methods can include size and charge measurements.

A further data set can be described thus: in vitro. Format: in vitro ADME. Conditions: human, cells or culture medium. As for the experimental part: Clearance of the ancillary materials such as transfection reagent during bioprocessing is emphasized. We hypothesized that LAH4 is largely degraded by cellular proteases after transfection process is completed. […] Different concentrations of the LAH4 peptide were added to cell culture volumes of 3 L and 100 L (i.e., bioreactors). At 4 hours post transfection, the LAH4 peptide concentration was reduced by ˜45% to ˜85% relative to initial LAH4 peptide concentration. At 24 hours post transfection, the LAH4 peptide concentration was reduced by ˜83% to ˜97% relative to initial LAH4 peptide concentration. At 48 hours post transfection, the LAH4 peptide concentration was reduced by ˜93% to ˜99% relative to initial LAH4 peptide concentration. At 72 hours post transfection, the LAH4 peptide concentration was reduced by ˜96% to ˜99% relative to initial LAH4 concentration.
Cell culturing: Suspension HEK293 cells are cultured according to the manufacturer's instructions in the provided cell culture media. For small scale transfection study HEK293 cells are seeded in the range of at a predetermined cell density in 125 ml Erlenmeyer shake flasks on the day of transfection.
LAH4 detection in cells: Samples are collected at different time points after transfection and analyzed using LC/MS assay.

With “KKALLAHFFHLLALLALHFFHALKKA (Synthetic LAH4-L1-F4 peptide)”, the “rBV titers versus control reagent” value in the data set on Sf9 cells [1] was “comparable”. The “AAV5 capsid titers versus control reagent” value with Sf9 cells [2] is “comparable”.

With “KKALLALALHHLAHLAHHLALALKKA (Synthetic LAH5 peptide)”, the “rBV titers versus control reagent” value in the data set with Sf9 cells [1] is given as “comparable”.

For KKALLALALHHLAHLALHLALALKKA [LAH4], the viability in data set [3] (Ambr15, 1% complexation volume, FIG. 10D) was more than 75%; in data set [3] (Ambr15, 10% complexation volume, FIG. 10D) it was approximately 72.5%; in data set [3] (Ambr15, 10 minute complexation time, FIG. 10H) it was approximately 72.5%; in data set [3] (Ambr15, 60 minute complexation time, FIG. 10H), more than 75%. Also, the “stability of LAH4:DNA complexes” value in data set [4] was not below 1 h. Besides, the metabolised at 72 h in “in vitro” is more than 95%.

“polyethylenimine [PEI, reference compound]”: in data set [4], the “stability when mixed with plasmids and incubated for extended periods of time” value is “does not remain stable”.
